Here are results for two molecules from PMC3861733 (Molecular & Cellular Proteomics : MCP, 2013).

One data set addresses T1, Saci-PP2A (Sulfolobus acidocaldarius, UniProt Q4JAD1).
T1 sequence (Q4JAD1 1-293): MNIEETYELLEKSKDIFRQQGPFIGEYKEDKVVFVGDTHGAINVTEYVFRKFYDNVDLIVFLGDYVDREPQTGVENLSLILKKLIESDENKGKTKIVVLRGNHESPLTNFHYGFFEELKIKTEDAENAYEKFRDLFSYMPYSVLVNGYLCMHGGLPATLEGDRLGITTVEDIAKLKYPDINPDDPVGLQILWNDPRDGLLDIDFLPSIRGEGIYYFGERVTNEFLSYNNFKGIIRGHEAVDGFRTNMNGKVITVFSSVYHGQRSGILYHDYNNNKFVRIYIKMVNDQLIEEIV
The data set can be described thus: malachite green phosphate release assay, inhibition. The class given is biochemical. The conditions noted are these: read-out: % activity at 10 nM.

Substrate in the data set “purified protein”: O=[N+]([O-])c1ccc(OP(=O)(O)O)cc1
The data set can be described thus: purified protein. The class given is biochemical, Sulfolobus acidocaldarius. The conditions noted are these: 0.1 M HEPES/KOH pH 6.5, 70 °C, substrate inhibition above 2 mM.

For orientation: Vmax means the top rate of the reaction or transport when substrate is in excess.

For the molecule `C=C1[C@@H](O)[C@@H]2O[C@]3(CC[C@H](/C=C/[C@@H](C)[C@@H]4CC(C)=C[C@@]5(O[C@H](C[C@@](C)(O)C(=O)O)CC[C@H]5O)O4)O3)CC[C@H]2O[C@@H]1[C@@H](O)C[C@H](C)[C@H]1O[C@@]2(CCCCO2)CC[C@H]1C` [okadaic acid], on Saci-PP2A, the activity at 0.01 µM worked out at 56%.

B1: Saci-PTP (Sulfolobus acidocaldarius DSM 639) (protein)
chain: MYWVKKHVIGGSAIPYTQDEIIGWINEGVKRVLVLPEEFEIDEAWGSLEYYISVLKSFNIEYLYSPIPDGRAPSENQFLEIYKWLRKDKGNLVHCVGGIGRTGTILASYLVLEENMSAEEAIEEVRRVRPGAVQTYEQELFVFKVEKMKDKWKIL
In the case of B1, in the data set “purified protein”, the Vmax is 3.7 µmol/min/mg.
